Data on 23 compounds can be found in patent publication US10844064B2, “sGC stimulators” (Cyclerion Therapeutics, Inc., priority 2014, dated 2020).

One experiment has as its target T1, soluble guanylate cyclase (sGC) (Homo sapiens, UniProt Q02108+Q02153).
T1 construct: endogenously expressing soluble guanylate cyclase (sGC); endogenous in cells; host or cells: HEK293
T1 sequence (Q02108 1-690): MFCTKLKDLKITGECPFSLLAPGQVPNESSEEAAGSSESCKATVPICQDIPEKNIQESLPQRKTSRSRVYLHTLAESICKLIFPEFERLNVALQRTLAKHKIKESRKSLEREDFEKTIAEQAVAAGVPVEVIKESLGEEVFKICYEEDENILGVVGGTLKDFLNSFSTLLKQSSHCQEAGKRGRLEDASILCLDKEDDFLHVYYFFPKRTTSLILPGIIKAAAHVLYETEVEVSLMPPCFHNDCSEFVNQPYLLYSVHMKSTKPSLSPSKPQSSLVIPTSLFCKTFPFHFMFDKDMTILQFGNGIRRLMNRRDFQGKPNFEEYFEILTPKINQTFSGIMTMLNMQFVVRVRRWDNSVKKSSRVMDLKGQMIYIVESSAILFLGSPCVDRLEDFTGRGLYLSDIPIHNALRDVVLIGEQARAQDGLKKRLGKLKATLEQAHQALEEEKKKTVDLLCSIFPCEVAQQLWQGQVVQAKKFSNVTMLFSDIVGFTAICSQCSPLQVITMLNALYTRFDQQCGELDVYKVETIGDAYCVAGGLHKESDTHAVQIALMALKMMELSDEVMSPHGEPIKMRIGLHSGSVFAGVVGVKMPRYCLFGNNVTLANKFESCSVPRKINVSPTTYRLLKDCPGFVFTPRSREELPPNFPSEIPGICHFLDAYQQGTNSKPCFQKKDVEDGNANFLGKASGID
T1 sequence (Q02153 1-619): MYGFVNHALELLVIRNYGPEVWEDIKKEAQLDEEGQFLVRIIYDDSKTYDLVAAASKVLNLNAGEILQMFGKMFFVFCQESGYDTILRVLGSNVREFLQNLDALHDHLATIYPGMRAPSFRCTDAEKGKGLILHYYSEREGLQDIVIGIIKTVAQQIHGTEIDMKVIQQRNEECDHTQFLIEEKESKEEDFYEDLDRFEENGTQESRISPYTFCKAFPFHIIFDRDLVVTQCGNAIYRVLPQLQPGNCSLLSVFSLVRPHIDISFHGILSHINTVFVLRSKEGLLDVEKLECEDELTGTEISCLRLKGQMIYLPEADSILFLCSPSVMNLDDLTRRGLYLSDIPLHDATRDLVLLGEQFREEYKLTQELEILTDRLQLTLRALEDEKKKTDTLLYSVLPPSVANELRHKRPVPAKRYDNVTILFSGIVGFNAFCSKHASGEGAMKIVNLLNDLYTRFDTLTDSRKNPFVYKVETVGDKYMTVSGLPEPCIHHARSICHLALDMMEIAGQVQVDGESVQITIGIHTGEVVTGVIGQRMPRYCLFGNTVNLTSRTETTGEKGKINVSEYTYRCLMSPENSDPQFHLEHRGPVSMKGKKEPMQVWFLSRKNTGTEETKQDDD
The experiment in a line: sGC-HEK-cGMP assay with LC/MS detection (Example 2A). It counts as cell-based. As to conditions: HEK293 cells, 10 μM DETA-NONOate, 20 min; concentration eliciting 50% of high control response (30 μM Compound Y); read-out: Absolute EC50 (nM) - binned. How it is done: Human embryonic kidney cells (HEK293), endogenously expressing soluble guanylate cyclase (sGC), were used to evaluate the activity of test compounds. Compounds stimulating the sGC enzyme should cause an increase in the intracellular concentration of cGMP. HEK 293 cells were seeded in Dulbecco's Modification of Eagle's Medium supplemented with fetal bovine serum (10% final) and penicillin (100 U/mL)/streptomycin (100 μg/mL) in a 50 μL, volume at a density of 1.5×10^4 cells/well in a poly-D-lysine coated 384 well flat bottom plate. Cells were incubated overnight at 37° C. in a humidified chamber with 5% CO2. Medium was aspirated and cells were washed with 1× Hank's Buffered Saline Salt Solution (50 μL). Cells were then incubated for 15 minutes at 37° C. with 50 μL of a 0.5 mM 3-isobutyl-1-methylxanthine (IBMX) solution. Test article and Diethylenetriamine NONOate (DETA-NONOate) solutions (x μM concentration for test article solution and 10 μM concentration for DETA-NONOate solution; wherein x is one of the following concentrations);
were then added to the assay mixture and the resulting mixture incubated at 37° C. for 20 minutes. After the 20 minute incubation, the assay mixture was aspirated and 10% acetic acid containing 150 ng/mL+3-cGMP (internal standard for LCMS) (50 μL) was added to the cells. The plate was incubated at 4° C. for 30 minutes in the acetic acid solution to stop the reaction and lyse the cells. The plates were then centrifuged at 1,000 g for 3 minutes at 4° C. and the supernatant transferred to a clean reaction plate for LCMS analysis.
cGMP concentrations were determined from each sample using the LCMS conditions below (Table 2) and calculated standard curve. The standard curve was prepared in 10% acetic acid with 150 ng/mL+3cGMP (isotopically labelled cGMP with a weight 3 units higher than wild type) with the following final concentrations of cGMP in ng/mL: 1, 5, 10, 50, 100, 250, 500, 1000, 2000.
(§1) Data were normalized to a high control using the following equation: 100*(Sample—Low Control)/(High Control—Low Control), where the low control is the average of 16 samples treated with 1% DMSO, and the high control is the average of 16 samples treated with 30 μM of Compound Y depicted below. Data were fit using a 4-parameter fit (log(agonist) vs. response variable slope) using GraphPad Prism Software v.5. n=2 for all compounds. […] Compounds failing to elicit a minimum response of 50% are reported as >30 μM. For compounds run in duplicate or n higher than 2, the result herein given is the geometric mean of the several results obtained.
On to `COc1cc(-c2nc(N)c3c(n2)NC(=O)C3(C)c2nnc(C)o2)nn1Cc1ccccc1F` (centres unmarked) [Compound I-1, 4-amino-2-(1-(2-fluorobenzyl)-5-methoxy-1H-pyrazol-3-yl)-5-methyl-5-(5-methyl-1,3,4-oxadiazol-2-yl)-5H-pyrrolo[2,3-d]pyrimidin-6(7H)-one], for which the EC50 was less than 100 nM.

As for `OCCn1nnc2cnc(-c3cc(-c4ccon4)n(Cc4ccccc4F)n3)nc21` [Compound I-2], the EC50 is more than 1000 nM.

With `OC(Cn1nnc2cnc(-c3cc(-c4ccon4)n(Cc4ccccc4F)n3)nc21)(C(F)(F)F)C(F)(F)F` [Compound I-3], the EC50 was more than 1000 nM.

As for `CC1(C)C(=O)N(CCO)c2nc(-c3cc(-c4ccon4)n(Cc4ccccc4F)n3)nnc21` [Compound I-4], the EC50 was more than 1000 nM.

In the case of `COC(=O)NS(=O)(=O)Nc1nc(-c2cc(-c3ccon3)n(Cc3ccccc3F)n2)nc2c1C(C)(C#N)C(=O)N2` (centres unmarked) [Compound I-5], the EC50 was in the range of 100 to 1000 nM.

Turning to `CC1(C)C(=O)Nc2nc(-c3cc(-c4ccon4)n(Cc4ccccc4F)n3)nc(NCCO)c21` [Compound I-6], the EC50 lay within 100 to 1000 nM.

Turning to `CC1(C(=O)NCCO)C(=O)Nc2nc(-c3cc(-c4ccon4)n(Cc4ccccc4F)n3)nc(NCCO)c21` (centres unmarked) [Compound I-7], the EC50 was more than 1000 nM.

As for `CC1(C)C(=O)Nc2nc(-c3cc(-c4ccon4)n(Cc4ccccc4F)n3)nc(NCC(O)(C(N)=O)C(F)(F)F)c21` (centres unmarked) [Compound I-8], the EC50 lay within 100 to 1000 nM.

On to `CCOC(=O)C1(C)C(=O)Nc2nc(-c3ccn(Cc4ccccc4F)n3)nc(N)c21` (centres unmarked) [Compound I-13, ethyl 4-amino-2-(1-(2-fluorobenzyl)-1H-pyrazol-3-yl)-5-methyl-6-oxo-6,7-dihydro-5H-pyrrolo[2,3-d]pyrimidine-5-carboxylate], for which the EC50 fell in the range of 100 to 1000 nM.

Consider `CC1(C(=O)NC2CC2)C(=O)Nc2nc(-c3ccn(Cc4ccccc4F)n3)nc(N)c21` (centres unmarked) [Compound I-14, 4-amino-N-cyclopropyl-2-(1-(2-fluorobenzyl)-1H-pyrazol-3-yl)-5-methyl-6-oxo-6,7-dihydro-5H-pyrrolo[2,3-d]pyrimidine-5-carboxamide], for which the EC50 is more than 1000 nM.

Take `Fc1ccccc1Cn1nc(-c2ncc3[nH]nnc3n2)cc1-c1ccon1` [Compound I-15]: the EC50 was more than 1000 nM.

The target of a further experiment is T2, sGC enzyme (Homo sapiens, UniProt Q02108+Q02153).
T2 construct: host or cells: HEK293 expressing GloSensor 40F cGMP
T2 sequence (Q02108 1-690): T1 sequence (Q02108 1-690)
T2 sequence (Q02153 1-619): T1 sequence (Q02153 1-619)
Put plainly: cGMP GloSensor cell-based assay, 384-well format (Example 2B). The note with it: HEK293 GloSensor 40F cGMP cells, 10 μM DETA-NONOate; 50% of high control response (Compound Y); read-out: sGC_HEK_GloSensor EC50/IC50 Abs (Norm) (nM) Binned. How it is done:
as §1
Human embryonic kidney cells (HEK293) cells expressing GloSensor™ 40F cGMP (Part No: CS182801, Promega) were used to evaluate the activity of test compounds. The luminescent biosensors (engineered luciferase) that were incorporated into these cells detect cGMP formed by the compounds stimulating the sGC enzyme and emit luminescence.
cGMP GloSensor cells were maintained in Dulbecco's Modification of Eagle's Medium (DMEM) supplemented with fetal bovine serum (FBS) (10% final) and hygromycine (200 μg/ml). The day before assay, cells were plated in DMEM with 10% FBS in a 50 μL volume at a density of 1.5×10^4 cells/well in a poly-D-lysine coated 384-well flat white-bottom plate (Corning Cat No 35661). Cells were incubated overnight at 37° C. in a humidified chamber with 5% CO2. The next day, medium was removed and cells were replaced with 40 μl/well of GloSensor™, […] (Promega Cat No E1291). Cells were treated for 90 minutes at 25° C. to allow the substrate to equilibrate in the cells. Test compounds and Diethylenetriamine NONOate (DETA-NONOate) was diluted to […] in serum-free CO2 independent medium and serally diluted at 4× dilutions to create 5× dose curve from which 10 ul was added to the wells (x uM concentration for test compound solution and 10 μM concentration for DETA-NONOate solution; wherein x is one of the following final concentrations).
For the kinetics studies, luminescense was measured right away for 0.2 sec per well with Envision (Perkin Elmer model No). For endpoint SAR screening, data were collected after 55 min incubation at room temperature.
Data analysis was carried out as indicated above in Example 2A.
Regarding `CC1(C)C(=O)Nc2nc(-c3ccn(Cc4ccccc4F)n3)nc(O)c21` [Compound I-79], the EC50 was more than 1000 nM.

For the compound `CC1(C)C(=O)Nc2nc(-n3cc(-c4ccon4)c(Cc4ccccc4F)n3)nc(N)c21` [Compound I-80, 4-amino-2-(3-(2-fluorobenzyl)-4-(isoxazol-3-yl)-1H-pyrazol-1-yl)-5,5-dimethyl-5H-pyrrolo[2,3-d]pyrimidin-6(7H)-one], the EC50 is less than 100 nM.

As to `CC1(C)C(=O)Nc2nc(-n3cc(-c4ccon4)c(Cc4ccccc4F)n3)ncc21` [Compound I-81, 2-(3-(2-fluorobenzyl)-4-(isoxazol-3-yl)-1H-pyrazol-1-yl)-5,5-dimethyl-5H-pyrrolo[2,3-d]pyrimidin-6(7H)-one], the EC50 was 100 to 1000 nM.

Regarding `COc1cn(-c2nc(N)c3c(n2)NC(=O)C3(C)C)nc1Cc1ccccc1F` [Compound I-82, 4-amino-2-(3-(2-fluorobenzyl)-4-methoxy-1H-pyrazol-1-yl)-5,5-dimethyl-5H-pyrrolo[2,3-d]pyrimidin-6(7H)-one], the EC50 is less than 100 nM.

Take `COc1cn(-c2nc(O)c3c(n2)NC(=O)C3(C)C)nc1Cc1ccccc1F` [Compound I-83]: the EC50 was less than 100 nM.

Consider `Cc1cn(-c2nc(N)c3c(n2)NC(=O)C3(C)C)nc1Cc1ccccc1F` [Compound I-84, 4-amino-2-(3-(2-fluorobenzyl)-4-methyl-1H-pyrazol-1-yl)-5,5-dimethyl-5H-pyrrolo[2,3-d]pyrimidin-6(7H)-one], for which the EC50 was less than 100 nM.

With `Cc1cn(-c2ncc3c(n2)NC(=O)C3(C)C)nc1Cc1ccccc1F` [Compound I-85], the EC50 lay within 100 to 1000 nM.

On to `Cc1cn(-c2nc(O)c3c(n2)NC(=O)C3(C)C)nc1Cc1ccccc1F` [Compound I-86], for which the EC50 was 100 to 1000 nM.

As for `Cc1nc(-c2nc(O)c3c(n2)NC(=O)C3(C)C)nn1Cc1ccccc1F` [Compound I-88], the EC50 is more than 1000 nM.

Regarding `Cc1nc(-c2ncc3c(n2)NC(=O)C3(C)C)nn1Cc1ccccc1F` [Compound I-89], the EC50 was more than 1000 nM.

Take `COc1ccc(CN2C(=O)C(C)(C)c3nnc(-n4cc(OC)c(Cc5ccccc5F)n4)nc32)cc1` [Compound I-91, 3-(3-(2-fluorobenzyl)-4-methoxy-1H-pyrazol-1-yl)-5-(4-methoxybenzyl)-7,7-dimethyl-5H-pyrrolo[2,3-e][1,2,4]triazin-6(7H)-one]: the EC50 is more than 30000 nM.

Regarding `COc1cc(-c2nc(N)c3c(n2)NC(=O)C3(C)C)nn1Cc1cncnc1` [Compound I-92, 4-amino-2-(5-methoxy-1-(pyrimidin-5-ylmethyl)-1H-pyrazol-3-yl)-5,5-dimethyl-5H-pyrrolo[2,3-d]pyrimidin-6(7H)-one], the EC50 was more than 1000 nM.
